“Also recorded” adds a separate entry of the source.
Legend:
[1] = system: D2A1 cells co-cultured with Hsf1 null MEFs; test: Co-culture of dsRed D2A1 cancer cells on Hsf1 null MEF feeder layer, cancer cells counted by flow cytometry; assay type: cell-based, mouse; conditions: for cancer cell growth (percentage of cancer cells) in co-culture with Hsf1 null MEFs on addition of recombinant proteins: 10 ng/ml TGFβ1, 100 ng/ml SDF1, added once, 96 h
Protocol: (§1) (A) The relative expression of Sdf1, Tgfβ1 and Tgfβ2 in WT or Hsf1 null immortalized MEFs was measured by quantitative PCR. mRNA expression levels were normalized to the house keeping gene Gapdh. The mean of 3 independent experiments is shown. Error bars, SEM. *p<0.05, **p<0.01. (B-C) WT or Hsf1 null immortalized MEFs were plated and treated with mitomycin C as in FIG. 3A. D2A1 cells marked with dsRed were then seeded on top of the MEFs in the presence or absence of 10 ng/ml TGFβ1 and 100 ng/ml SDF1. After 96 h, cells were either visualized by fluorescent microscopy (B) or trypsinized and quantitated by flow cytometry (C). The percentage of cancer cells in co-culture is presented. The experiment was repeated 3 times, in triplicate. Representative results of one experiment are shown as the mean+/−SEM. *p<0.05. (D) Immortalized WT or Hsf1 null mitomycin-treated MEFs were pretreated, or not, with LY2109761 for 30 minutes before D2A1 cells marked with dsRed were seeded on top. Cultures were continued for 72 h, with daily supplementation of LY2109761 (or not, as control), and then analyzed as in (C). The experiment was repeated 3 times, in triplicates. Results are expressed as the mean relative number of cancer cells, normalized to the non-drug treated co-cultures with WT MEFs. […] (E) Immortalized WT MEFs stably expressing shRNA hairpins targeting Smad2 (shSmad2) or GFP (shGFP) were co-cultured with D2A1 cells, treated and analyzed as in (C). […] IPs were analyzed by qPCR with primers targeting potential heat shock elements in mouse Sdf1 and Tgfβ2. […]
Figs. S4A-S4F show additional results. […] The relative expression of Sdf1, Tgfβ1 and Tgfβ2 in three separate sets of WT or Hsf1 null MEFs (each derived from a different pregnancy) was measured by quantitative PCR. mRNA expression levels were normalized to the house keeping gene Gapdh. […] After 96 h, cells were trypsinized and quantitated by flow cytometry. […] Relative cell number was measured by luminescence using Cell-Titer Glo reagent (Promega). […] After growth for 96 h, cells were trypsinized and quantitated by flow cytometry. […]

HSF1 [2] = test: Effect of RHT on expression of HSF1 stromal signature genes in Hsf1+/+ versus Hsf1-/- MEFs; assay type: cell-based, mouse; conditions: reduced in treated Hsf1+/+ MEFs but not in Hsf1-/- MEFs
Source text: A combination of experimental and bioinformatic approaches was used to define a set of HSF1-regulated genes of particular use for assessing the level of HSF1 activity in tumor-associated stromal cells for purposes of cancer classification, diagnosis, prognosis, treatment-specific prediction, and treatment selection. The pipeline started with the Group 1 and Group 4 gene lists described above. As described above, these 871 genes have increased expression in Hsf1+/+ versus Hsf1−/−MEFs. These 871 genes map to 562 genes in the Finak, G. et al. dataset discussed above (GEO (GSE9014)). […] Its structure is depicted below.
The 562 genes that mapped to genes in the Finak dataset were tested to determine the effect of RHT on their expression in Hsf1+/+MEFs versus […] MEFs. […] A filter was applied to these genes to identify those that were differentially expressed in tumors in the Finak dataset with poor versus good outcomes.

HSF1 [3] = conditions: recent chemical screening effort; cited from earlier work
D2A1 cancer cells = test: Growth of D2A1 cancer cells grown alone (no MEFs), Cell-Titer Glo luminescence; assay type: cell-based, mouse; conditions: LY2109761 1 μM, 72 h, daily re-addition of inhibitor
Protocol: Figs. S4A-S4F show additional results. (A) Tgfβ and Sdf1 mRNA levels are regulated by HSF1 in primary MEFs. The relative expression of Sdf1, Tgfβ1 and Tgfβ2 in three separate sets of WT or Hsf1 null MEFs (each derived from a different pregnancy) was measured by quantitative PCR. mRNA expression levels were normalized to the house keeping gene Gapdh. The experiment was repeated 3 times (each time with a different set of primary MEFs), in triplicate. Representative results are shown as the mean+/−SEM. *p<0.05, **p<0.01, ***p<0.001. […] WT or Hsf1 null immortalized MEFs were plated and treated with mitomycin C. D2A1 cells marked with dsRed were then seeded on top of the MEFs in the presence or absence of 10 ng/ml TGFβ1, 100 ng/ml SDF1 or a combination of both. After 96 h, cells were trypsinized and quantitated by flow cytometry. The percentage of cancer cells in the co-culture is presented. The experiment was repeated 3 times, in triplicate. […] Relative cell number was measured by luminescence using Cell-Titer Glo reagent (Promega). […] After growth for 96 h, cells were trypsinized and quantitated by flow cytometry. […] Relative levels of SMAD2 in WT immortalized MEFs (left two panels) or D2A1 cells (right two panels) were measured by immunoblotting lysates prepared from cells stably expressing shRNA hairpins targeting Smad2 (shSmad2) or GFP (shGFP). […]

[4] = system: D2A1 cells co-cultured with WT MEFs; test: Co-culture of dsRed D2A1 cancer cells on WT MEF feeder layer, cancer cells counted by flow cytometry; assay type: cell-based, mouse; conditions: LY2109761, MEFs pretreated 30 minutes, 72 h, daily supplementation; p=0.008
Protocol: as §1, with “(D) Immortalized WT or Hsf1 null mitomycin-treated MEFs were pretreated, or not, with LY2109761 for 30 minutes before D2A1 cells marked with dsRed were seeded on top.” left out, “The experiment was repeated 3 times, in triplicates.” left out

Q: For “TGFβ1: purified recombinant protein (R&D systems, 240-B-002)”, which “cancer cell growth (percentage of cancer cells) in co-culture with Hsf1 null MEFs on addition of recombinant proteins” value [1] is on record?
A: Partial effects, that did not reach statistical significance

Q: Which “number of genes (of 562 tested) whose expression was suppressed in an HSF1-dependent fashion” value (HSF1 [2]) does the source give for `COc1ccc([C@@]23Oc4cc(OC)cc(OC)c4[C@]2(O)[C@H](O)[C@H](C(=O)N(C)OC)[C@H]3c2ccccc2)cc1` [Rohinitib] here?
A: 95

Q: And the “inhibition of HSF1 activity” value (HSF1 [3])?
A: potent inhibitor

Q: Which “growth or survival of D2A1 cancer cells grown alone (relative cell number)” value (D2A1 cancer cells) does the source give for `c1ccc(-c2nn3c(c2-c2ccnc4cc(OCCN5CCOCC5)ccc24)CCC3)nc1` [LY2109761] here?
A: did not affect; also recorded: does not directly inhibit

Q: What about the “growth of D2A1 cancer cells in co-culture with Hsf1 null MEFs (relative number of cancer cells)” value ([1]; LY2109761, MEFs pretreated 30 minutes, 72 h, daily supplementation, p=0.1) of the same molecule?
A: A smaller effect, that did not reach statistical significance

Q: And the “growth of D2A1 cancer cells in co-culture with WT MEFs (relative number of cancer cells)” value [4]?
A: significantly reduce their growth

Q: Which “cancer cell growth (percentage of cancer cells) in co-culture with Hsf1 null MEFs on addition of recombinant proteins” value [1] does the source give for “SDF1: purified recombinant protein (R&D systems, 460-SD-010)” here?
A: Partial effects, that did not reach statistical significance

From US20170037480A1, “HSF1 IN TUMOR STROMA” (Whitehead Institute for Biomedical Research, priority 2014, published 2017)
